# Values joined by “and” are separate entries in the source; they are usually repeats but may differ in a detail not shown here. Identical values can stand only once.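 Step 1: Grow cells in 96-well plates. Step 2: Expose to compound for 48 hours at 5 concentrations. Step 3: Interpolate endpoints linearly; if unreached, use highest concentration. GI50 is the concentration that inhibits growth by half. TGI: concentration producing complete growth inhibition.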
# Experiments:
# Assay in all cases: NCI-60 cell line screen, 48 h
# NCI-H460 lung = system: NCI-H460 lung
# NCI/ADR-RES ovarian = system: NCI/ADR-RES ovarian
# LOX IMVI melanoma = system: LOX IMVI melanoma
# SNB-75 CNS = system: SNB-75 CNS
# IGROV1 ovarian = system: IGROV1 ovarian
# T-47D breast = system: T-47D breast
# TK-10 renal = system: TK-10 renal
# HCT-116 colon = system: HCT-116 colon
Compound,GI50 (NCI-H460 lung),TGI (NCI-H460 lung) [µM],GI50 (NCI/ADR-RES ovarian),TGI (NCI/ADR-RES ovarian) [µM],GI50 (LOX IMVI melanoma) [µM],TGI (LOX IMVI melanoma) [µM],GI50 (SNB-75 CNS) [µM],TGI (SNB-75 CNS) [µM],GI50 (IGROV1 ovarian),TGI (IGROV1 ovarian),GI50 (T-47D breast) [µM],TGI (T-47D breast) [µM],GI50 (TK-10 renal) [µM],TGI (TK-10 renal) [µM],GI50 (HCT-116 colon),TGI (HCT-116 colon) [µM]
C=C1C(=O)O[C@H]2[C@H]1CC/C(COC(=O)CCCCCC(=O)OC/C1=C/CC[C@@]3(C)O[C@H]3[C@H]3OC(=O)C(=C)[C@@H]3CC1)=C\CC[C@@]1(C)O[C@@H]21,3.21 µM,12.2,3.64 µM,24.8,1.47,2.88,3.05,29.6,2.51 µM,9.32 µM,1.96,5.74,2.58,5.7,–,–
N#Cc1nc(-c2ccc(F)cc2)oc1S(=O)(=O)N1CCCCC1,4.77 µM,19.6,4.97 µM,> 100,1.19,2.69,11.8,25,1.75 µM,3.5 µM,2.13,5.44,1.78,3.27,1.79 µM,3.54
O=C(O)C(Cc1cnc[nH]1)N1C(=O)c2ccccc2C1=O (stereo unspecified),–,> 100,–,> 100,–,> 100,–,> 100,–,> 100 µM,–,> 100,–,> 100,–,> 100
O=C(O)C[C@H](O)C[C@H](O)/C=C/c1c(C2CC2)nc2ccccc2c1-c1ccc(F)cc1,21.2 µM and 4.92 µM,> 100,2.82 µM and 0.86 µM,> 100,1.33,13.9,–,–,5.25 µM and 3.6 µM,43.5 µM and > 100 µM,–,> 100,–,> 100,5.8 µM and 1.25 µM,> 100
Cc1ccc(/C=C(\C#N)c2cc3ccccc3n2C)cc1,0.361 µM,> 100,0.361 µM,> 100,0.542,> 100,–,–,0.544 µM,> 100 µM,0.587,> 100,> 100,> 100,0.361 µM,> 100
CNC(=O)NCC1OC(n2cnc3c(NC(=O)Nc4ccccc4)ncnc32)C(O[Si](C)(C)C(C)(C)C)C1O[Si](C)(C)C(C)(C)C (stereo unspecified),1.72 µM,3.49,3.72 µM,20.7,1.82,3.36,2.43,34.1,2.74 µM,7.76 µM,2.87,10.3,4.29,72.6,2.11 µM,4.31
OCCCCC#Cc1ccccc1C#Cc1ccc(O)cc1,20.6 µM,48.6,17.3 µM,35.2,13.6,27.7,13.6,29.3,9.56 µM,22.8 µM,19.7,45.2,17.5,31.7,16.6 µM,31.8
COC(=O)c1c2c(c(C)[n+]([O-])c1C)C(=O)C=C(NCc1ccccc1)C2=O,0.872 µM,2.73,0.453 µM,2.95,0.34,1.53,1.82,3.22,0.492 µM,1.87 µM,0.316,1.59,2.92,7.19,0.303 µM,1.05
O=C1CCc2c(sc3[nH]c(=S)n(-c4cc(C(F)(F)F)cc(C(F)(F)F)c4)c(=O)c23)C1,0.353 µM,2.03,0.351 µM,11.4,0.392,5.62,0.328,3.66,0.446 µM,3.44 µM,0.385,2.46,0.874,> 44.1,0.341 µM,2.54
COC(C)(C)[C@@H](O)[C@H](O)C[C@H](C)C1=C2CC[C@@H]3[C@@]4(C)CC[C@@H](OC(C)=O)C(C)(C)[C@@H]4C[C@@H](OC4OC(COC(C)=O)C(O)C(O)C4O)[C@@]3(C)[C@]2(C)CC1 (stereo partly specified),9.06 µM,25.5,15.2 µM,29.4,6.36,19.6,–,21.2,13.1 µM,26.2 µM,12.6,25.6,–,–,6.09 µM,19.2
O=S(=O)(NC1CCCCC1)c1ccc2c(c1)OCCOCCOCCOCCO2,–,> 100,–,–,–,> 100,–,> 100,–,> 100 µM,–,> 100,–,> 100,–,> 100
O=C(NCCN1CCOCC1)OCc1nc2nc(Cl)nc(N3CCOCC3)c2[nH]1,3.29 µM,> 100,0.566 µM,> 100,0.382,> 100,4.12,> 100,2.7 µM,> 100 µM,> 100,> 100,> 100,> 100,2.41 µM,> 100
COc1ccccc1/C=C1\COc2ccc(-c3ccccc3)cc2C1=O,2.1 µM,4.62,3.66 µM,23.6,2.97,10.7,2.46,6.97,4.69 µM,> 100 µM,2.83,> 100,2.64,7.91,2.98 µM,12
NC(=N\N=C/c1ccc(O)cc1)/C(N)=N\N=C/c1ccc(O)cc1,13.8 µM,> 100,> 100 µM,> 100,0.435,> 100,17.3,43.3,> 59.6 µM,> 100 µM,13.6,> 100,> 100,> 100,> 100 µM,> 100
COc1ccc2c(c1)/C(=C\c1ccncc1)C(=O)N2,6.68 µM,> 100,12.3 µM,67.1,2.26,5.82,–,–,4.15 µM,9.37 µM,22.3,> 100,15.1,30.5,3.72 µM,17.8
COc1ccc([C@H](CC(=O)O)N2CCN(CCCc3ccc4c(n3)NCCC4)C2=O)cn1,4.36 µM,> 100,> 100 µM,> 100,0.715,4.23,0.0112,0.0278,> 38.1 µM,> 100 µM,0.382,4.65,0.0167,0.0795,0.202 µM,> 34.7
